This note sets out measurements from publication PMC3710292 (Cellular and molecular life sciences : CMLS, 2013).

Format in all cases: cell-based
Assay [1] addresses human TRPM7 (Homo sapiens, UniProt Q96QT4). The assay is described as follows: whole-cell patch clamp, current at +[…] mV.
In assay [2] the target is TRPM7 Δ-kinase (Homo sapiens, UniProt Q96QT4). The assay is described as follows: whole-cell patch clamp, current at +[…] mV.
The target of assay [3] is human TRPM6 (hTRPM6) (Homo sapiens, UniProt Q9BX84). Nature of the assay: whole-cell patch clamp, current at +[…] mV, […] s. Particulars: intracellular iodide 154 mM; no intracellular Mg2+; pH 7.2.

Chain of human TRPM7 (Q96QT4 whole entry): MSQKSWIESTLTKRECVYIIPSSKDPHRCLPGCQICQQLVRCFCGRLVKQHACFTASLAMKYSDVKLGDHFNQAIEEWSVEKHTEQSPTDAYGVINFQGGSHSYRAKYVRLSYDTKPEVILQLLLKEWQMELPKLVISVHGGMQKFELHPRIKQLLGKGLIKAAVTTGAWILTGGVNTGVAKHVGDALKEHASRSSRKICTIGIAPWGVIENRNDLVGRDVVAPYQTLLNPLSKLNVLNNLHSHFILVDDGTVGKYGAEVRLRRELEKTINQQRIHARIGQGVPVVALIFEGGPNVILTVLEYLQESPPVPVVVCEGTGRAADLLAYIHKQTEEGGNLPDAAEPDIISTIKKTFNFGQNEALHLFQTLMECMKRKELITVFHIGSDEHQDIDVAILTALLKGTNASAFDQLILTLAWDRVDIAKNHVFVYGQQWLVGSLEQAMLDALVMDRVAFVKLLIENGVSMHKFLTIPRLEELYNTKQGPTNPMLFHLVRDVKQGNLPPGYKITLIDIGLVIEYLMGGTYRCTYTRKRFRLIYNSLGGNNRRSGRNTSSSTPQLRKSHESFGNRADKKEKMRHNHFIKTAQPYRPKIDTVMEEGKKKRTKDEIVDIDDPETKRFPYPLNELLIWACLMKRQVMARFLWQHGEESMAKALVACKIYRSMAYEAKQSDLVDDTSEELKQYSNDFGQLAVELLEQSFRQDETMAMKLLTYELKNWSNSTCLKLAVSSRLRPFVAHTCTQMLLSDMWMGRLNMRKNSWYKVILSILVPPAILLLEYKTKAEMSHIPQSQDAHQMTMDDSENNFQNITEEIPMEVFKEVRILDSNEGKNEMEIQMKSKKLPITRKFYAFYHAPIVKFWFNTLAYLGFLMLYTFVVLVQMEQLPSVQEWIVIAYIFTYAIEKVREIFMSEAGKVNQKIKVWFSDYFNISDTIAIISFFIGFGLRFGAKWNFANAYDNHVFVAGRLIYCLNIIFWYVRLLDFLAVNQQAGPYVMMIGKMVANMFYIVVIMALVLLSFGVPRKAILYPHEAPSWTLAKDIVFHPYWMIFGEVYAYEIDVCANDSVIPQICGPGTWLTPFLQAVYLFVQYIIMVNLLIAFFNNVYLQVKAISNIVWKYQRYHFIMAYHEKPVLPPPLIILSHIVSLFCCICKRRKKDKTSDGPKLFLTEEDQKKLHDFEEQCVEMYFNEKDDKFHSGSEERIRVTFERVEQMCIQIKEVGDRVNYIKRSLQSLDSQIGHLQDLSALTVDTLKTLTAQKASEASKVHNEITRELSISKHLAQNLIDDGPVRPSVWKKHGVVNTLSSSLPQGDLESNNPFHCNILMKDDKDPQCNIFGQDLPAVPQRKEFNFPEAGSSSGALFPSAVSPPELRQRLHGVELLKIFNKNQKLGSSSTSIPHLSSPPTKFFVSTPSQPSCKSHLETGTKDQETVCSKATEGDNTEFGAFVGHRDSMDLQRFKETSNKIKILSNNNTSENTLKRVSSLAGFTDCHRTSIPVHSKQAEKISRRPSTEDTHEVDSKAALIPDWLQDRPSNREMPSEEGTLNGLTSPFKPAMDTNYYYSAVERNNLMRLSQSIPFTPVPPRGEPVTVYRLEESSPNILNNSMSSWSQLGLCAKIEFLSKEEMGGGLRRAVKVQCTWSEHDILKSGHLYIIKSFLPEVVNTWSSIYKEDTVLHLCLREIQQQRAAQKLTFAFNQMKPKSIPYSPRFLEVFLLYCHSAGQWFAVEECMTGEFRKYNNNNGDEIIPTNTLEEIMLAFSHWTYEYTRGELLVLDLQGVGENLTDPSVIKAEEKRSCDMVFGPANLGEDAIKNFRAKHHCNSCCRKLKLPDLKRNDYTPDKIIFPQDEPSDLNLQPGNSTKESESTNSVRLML
Chain of TRPM7 Δ-kinase (Q96QT4 1-1569, stated change not applied): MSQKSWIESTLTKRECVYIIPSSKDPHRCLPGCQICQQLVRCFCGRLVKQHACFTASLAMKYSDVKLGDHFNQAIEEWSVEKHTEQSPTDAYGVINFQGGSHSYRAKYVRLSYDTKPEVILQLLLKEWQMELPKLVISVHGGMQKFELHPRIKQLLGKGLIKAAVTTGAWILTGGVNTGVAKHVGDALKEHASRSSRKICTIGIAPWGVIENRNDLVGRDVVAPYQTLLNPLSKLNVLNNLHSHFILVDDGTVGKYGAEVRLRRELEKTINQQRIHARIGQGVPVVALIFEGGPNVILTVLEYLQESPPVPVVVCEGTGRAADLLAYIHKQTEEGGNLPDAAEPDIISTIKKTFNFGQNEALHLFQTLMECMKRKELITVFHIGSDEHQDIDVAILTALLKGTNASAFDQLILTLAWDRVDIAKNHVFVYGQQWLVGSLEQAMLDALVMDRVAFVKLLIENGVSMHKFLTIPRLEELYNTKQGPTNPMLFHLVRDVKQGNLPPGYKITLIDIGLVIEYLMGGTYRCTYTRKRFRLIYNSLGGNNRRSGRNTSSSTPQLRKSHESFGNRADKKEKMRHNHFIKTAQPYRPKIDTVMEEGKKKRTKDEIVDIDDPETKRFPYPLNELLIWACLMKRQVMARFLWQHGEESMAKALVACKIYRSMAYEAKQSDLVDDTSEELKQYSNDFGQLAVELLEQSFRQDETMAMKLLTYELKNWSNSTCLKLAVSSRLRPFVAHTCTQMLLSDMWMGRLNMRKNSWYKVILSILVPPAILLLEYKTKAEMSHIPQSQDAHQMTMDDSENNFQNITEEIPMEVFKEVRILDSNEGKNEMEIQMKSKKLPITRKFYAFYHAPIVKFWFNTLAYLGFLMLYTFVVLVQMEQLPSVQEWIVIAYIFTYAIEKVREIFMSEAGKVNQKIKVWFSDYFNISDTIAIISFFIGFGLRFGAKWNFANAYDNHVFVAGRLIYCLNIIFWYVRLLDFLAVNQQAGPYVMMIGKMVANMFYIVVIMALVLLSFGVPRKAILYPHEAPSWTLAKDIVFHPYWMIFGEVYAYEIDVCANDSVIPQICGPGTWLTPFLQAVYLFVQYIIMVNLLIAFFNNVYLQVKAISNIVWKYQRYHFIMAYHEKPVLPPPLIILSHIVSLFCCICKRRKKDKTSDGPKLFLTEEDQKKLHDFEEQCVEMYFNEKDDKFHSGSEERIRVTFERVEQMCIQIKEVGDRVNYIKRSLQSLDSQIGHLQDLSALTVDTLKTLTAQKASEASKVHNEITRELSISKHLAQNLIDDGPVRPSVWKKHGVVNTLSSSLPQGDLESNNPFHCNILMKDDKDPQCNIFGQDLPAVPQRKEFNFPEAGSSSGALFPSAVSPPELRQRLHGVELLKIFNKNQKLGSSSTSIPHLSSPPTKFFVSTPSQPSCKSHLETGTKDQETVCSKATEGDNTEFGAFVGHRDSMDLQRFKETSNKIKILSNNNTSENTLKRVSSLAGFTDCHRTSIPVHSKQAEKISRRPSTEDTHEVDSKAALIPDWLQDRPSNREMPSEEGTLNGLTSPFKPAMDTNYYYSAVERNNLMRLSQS

Compound `Br` [bromide] gave an IC50 in assay [1] of 88 ± 6 mM.
Compound `Cl` [chloride] displayed an IC50 in assay [1] of 99 ± 9 mM.
For `I` [iodide], the concentration for half-maximal inhibition (IC50) in assay [2] amounted to 31 ± 3 mM. Also, the “% inhibition at 154 mM” value in assay [3] was found to be 52%.
